These results are taken from patent US20210277009A1, “PRMT5 INHIBITORS” (Merck Sharp & Dohme Corp., priority 2018, published 2021).

Assay [1] has as its target T1, PRMT5-MEP50 enzyme complex (Homo sapiens, UniProt O14744).
T1 construct: 1.25 nM of Full-length (FL)-PRMT5-MEP50 enzyme complex; made in house; host or cells: baculovirus-transfected Sf21 cells
Nature of the assay: PRMT5-MEP50 Enzyme Methylation Assay. It counts as biochemical. The procedure: PRMT5-MEP50 biochemical assay is a direct measurement of the methylation activity of the enzyme complex on a short peptide substrate derived from the N-terminus of H4 histone. Methylation experiment is performed with recombinant PRMT5-MEP50 protein complex. The assessment of inhibitory effect of small molecules is measured by tire effectiveness of the compounds to inhibit tins reaction (EC50).
In this assay, the potency (EC50) of each compound was determined from a twenty-point (1:2 serial dilution; top compound concentration of 100000 nM) titration curve using the following outlined procedure. To each well of a white ProxiPlus 384 well-plate, 100 nL of compound (1% DMSO in final assay volume of 10 μL) was dispensed, followed by the addition of 8 μL of 1× assay buffer (50 mM Bicine pH 8.0, 1 mM DTT, 0.004% Tween20, 0.01% BSA) containing 1.25 nM of Full-length (FL)-PRMT5-MEP50 enzyme complex (recombinant proteins from baculovirus-transfected Sf21 cells: FL-PRMT5; MW=[…] and FL-MEP50; MW=38614) and 1 μL of 150 μM S-(5′-Adenosyl)-L-Methionine Chloride (SAM). Plates were sealed and placed in a 37° C. humidified chamber for a 60 minutes pre-incubation with compound. Subsequently, each reaction was initiated by the addition of 1 μL 1× assay buffer containing 750 nM biotinylated H4R3(Mel) peptide. The final reaction in each well of 10 μL consists of 1.0 nM PRMT5-MEP50, 75 nM biotinylated-peptide, and […] SAM. Methylation reactions were allowed to proceed for 150 minutes in a sealed plate at 37° C. Reactions were immediately quenched by the addition of 1 μL of 5% formic acid. Plates were then frozen and shipped to SAMDITM Tech Inc. to determine the percent conversion from H4R3(Mel) to H4R3(Me2). Dose-response curves were generated by plotting percent effect (% product conversion; Y-axis) vs. Log 10 compound concentrations (X-axis). EC50 values were determined by non-linear regression according to models for either sigmoidal (4 parameters) or biphasic (7 parameters) dose-response curves.

In assay [2] the test system is symmetric dimethylation of arginine (SDMA) of PRMT5 substrates in MCF-7 cells. Nature of the assay: PRMT5 Cell Target Engagement (TE) Assay. It counts as cell-based. The settings on record: treated for 3 days, nuclear SDMA by high content imaging, top concentration 10000 nM. The source says:
The PRMT5 TE assay is a biomarker assay for identifying compounds that inhibit symmetric dimethylation of arginine (SDMA) of PRMT5 substrates. The following substrates have been reported for PRMT5: histone H2A and H4 R3, Histone H3 R2, Histone H3 R8, spliceosome Sm proteins, ribosomal protein RPS10, p53, FEN1, nudeoplasmin, nucleolin, EGFR and EBNA. The assay will focus on detecting symmetrically dimethylated nuclear proteins using high content imaging technology. Detection of the expression of symmetrically dimethylated nuclear proteins is through a mixture of primary rabbit monoclonal antibodies to SDMA (CST 13222), which in turn recognized by an Alexafluor 488 dye-conjugated anti-rabbit IgG secondary antibody. The IN Cell Analyzer 2200 or Opera-Phenix measures nuclear Alexafluor 488 fluorescent dye intensity that is directly related to the level of expression of symmetrically dimethylated nuclear proteins at the single cell level. Nuclear AF488 dye intensities are compared to the mean value for DMSO treated cells (MIN) to report percent of inhibition for each compound-treated well.
In this assay, the cell potency (EC50) of each compound was determined from a ten point (1:3 serial dilution; top compound concentration of 10000 nM) titration curve using the following outlined procedure. Each well of a BD falcon collagen coated black/clear bottom 384-well plate was seeded with 4000 MCF-7 cells in 30 μl media and allowed to attach for 5 h. Media is ATCC-formulated Eagle's Minimum Essential Medium, Catalog No. 30-2003. To make the complete growth medium, the following components were added to the base medium: 0.01 mg/ml human recombinant insulin; fetal bovine serum to a final concentration of 10%. Additional 30 μl of media containing 2× compounds were added to each well. Cells were treated for 3 days in 37° C. CO2 incubator. On day 3, cells were fixed with Cytofix, permeablized with 0.4% Triton-X-100/Cytofix, and washed with D-PBS without Ca/Mg. Cells were blocked with Licor Odessey blocking reagent for 1 h at room temperature, followed by incubation with anti-SDMA (1:1000) antibody at 4° C. overnight. 1° antibody was removed, followed by three washings with DPBS without Ca/Mg and 0.05% Tween20. Hoechst (5 μg/ml), Cell Mask deep stain (1:2000) and Alexa488-conjugated goat anti-rabbit IgG (2 μg/mL) was added for 1 hour at room temperature. A final washing step (three washes) was performed before sealing plate for imaging on In Cell Analyzer 2200 or Opera-Phenix. Images from analyzer were uploaded to Columbus (at WP or BOS) for image analysis. IC50 values were determined by 4 parameters robust fit of percent fluorescence units vs. (Logic) compound concentrations.

Where [3] appears, read: single EC50 from 4 parameters single site sigmoidal model, or first EC50 of 7 parameters biphasic model, 1.0 nM PRMT5-MEP50, H4R3(Me1) peptide, SAM, read-out: Enzyme Methylation Assay (EC50 or EC50_1).
The mark [4] stands for this setting: second EC50 of 7 parameters biphasic model, read-out: Enzyme Methylation Assay (EC50_2).

Structures are written as SMILES. pEC50: −log10 of the molar value. Like-named read-outs stand apart in the source and are kept apart here.

T1 sequence (O14744 whole entry): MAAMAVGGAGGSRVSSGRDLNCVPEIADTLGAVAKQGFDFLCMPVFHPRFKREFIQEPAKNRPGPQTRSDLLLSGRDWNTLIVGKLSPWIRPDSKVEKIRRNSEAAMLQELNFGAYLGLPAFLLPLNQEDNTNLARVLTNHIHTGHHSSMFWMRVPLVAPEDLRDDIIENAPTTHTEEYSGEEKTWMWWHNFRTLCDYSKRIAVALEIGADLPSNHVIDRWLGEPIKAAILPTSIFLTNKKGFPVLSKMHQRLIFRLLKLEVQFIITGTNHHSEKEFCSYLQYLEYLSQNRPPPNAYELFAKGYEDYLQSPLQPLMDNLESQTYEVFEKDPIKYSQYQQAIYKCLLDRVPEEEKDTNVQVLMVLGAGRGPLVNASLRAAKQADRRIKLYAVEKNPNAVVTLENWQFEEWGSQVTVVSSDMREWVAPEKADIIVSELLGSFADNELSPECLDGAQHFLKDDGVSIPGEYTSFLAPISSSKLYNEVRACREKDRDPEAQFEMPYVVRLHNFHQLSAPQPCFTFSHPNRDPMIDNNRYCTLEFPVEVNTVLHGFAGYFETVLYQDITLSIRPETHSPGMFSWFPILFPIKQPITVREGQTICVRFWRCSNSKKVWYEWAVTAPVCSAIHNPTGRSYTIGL
T1 sequence (Q9BQA1 whole entry partner): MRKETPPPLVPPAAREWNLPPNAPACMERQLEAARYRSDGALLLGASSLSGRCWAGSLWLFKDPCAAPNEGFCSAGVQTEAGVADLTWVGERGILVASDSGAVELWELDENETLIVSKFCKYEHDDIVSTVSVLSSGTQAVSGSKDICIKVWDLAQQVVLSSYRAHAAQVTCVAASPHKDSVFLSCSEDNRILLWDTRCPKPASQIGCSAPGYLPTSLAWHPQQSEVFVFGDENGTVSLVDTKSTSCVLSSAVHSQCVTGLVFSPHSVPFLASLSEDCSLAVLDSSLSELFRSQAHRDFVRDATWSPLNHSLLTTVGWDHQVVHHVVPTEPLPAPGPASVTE

For the molecule `Cc1cc2ccc(CC[C@H]3S[C@@H](n4ccc5c(C)ncnc54)[C@H](O)[C@@H]3O)cc2nc1N` (single isomer, unassigned) [Example 28], the pEC50 in assay [1] (setting [3]) was 9.15; in assay [2] (Homo sapiens, MCF7, 72 h) it was 8.85.

For the molecule `Cc1cc2ccc(CC[C@@H]3S[C@@H](n4ccc5c(C)ncnc54)[C@H](O)[C@@H]3O)cc2nc1N` (single isomer, unassigned) [Example 29], the pEC50 was 9.22 in assay [1] (setting [3]) and 9.05 in assay [2] (Homo sapiens, MCF7, 72 h).

For the molecule `Cc1ncnc2c1ccn2[C@@H]1S[C@@H](CCc2ccc3cc4c(nc3c2)NC(C)C4)[C@@H](O)[C@H]1O` (single isomer, unassigned) [Example 39, (2S,3S,4R,5R)-2-(2-((R or S)-2-methyl-2,3-dihydro-1H-pyrrolo[2,3-b]quinolin-7-yl)ethyl)-5-(4-methyl-7H-pyrrolo[2,3-d]pyrimidin-7-yl)tetrahydrothiophene-3,4-diol], the pEC50 in assay [1] (setting [3]) was 7.66; in assay [2], 5.61.

For the molecule `Cc1ncnc2c1ccn2[C@@H]1S[C@@H](CCc2ccc3cc4c(nc3c2)NC(C)C4)[C@@H](O)[C@H]1O` (single isomer, unassigned) [Example 40, (2S,3S,4R,5R)-2-(2-((S or R)-2-methyl-2,3-dihydro-1H-pyrrolo[2,3-b]quinolin-7-yl)ethyl)-5-(4-methyl-7H-pyrrolo[2,3-d]pyrimidin-7-yl)tetrahydrothiophene-3,4-diol], in assay [1] (setting [3]), the pEC50 was 7.24.

In the case of `Cc1ncnc2c1ccn2[C@@H]1SC(CCc2ccc3ccc(NCC(F)F)nc3c2)[C@@H](O)[C@H]1O` (stereo in doubt) [Example 27, (2S,3S,4R,5R)-2-(2-{2-[(2,2-difluoroethyl)amino]quinolin-7-yl}ethyl)-5-(4-methyl-7H-pyrrolo[2,3-d]pyrimidin-7-yl)tetrahydrothiophene-3,4-diol], the pEC50 in assay [1] (setting [3]) is 7.32; in assay [2], 7.26.

`Nc1nc2cc(OC[C@H]3S[C@@H](n4ccc5c(N)ncnc54)[C@H](O)[C@@H]3O)ccc2cc1Br` [Example 1, (2R,3S,4R,5R)-2-(((2-amino-3-bromoquinolin-7-yl)oxy)methyl)-5-(4-amino-7H-pyrrolo[2,3-d]pyrimidin-7-yl)tetrahydrothiophene-3,4-diol]: the pEC50 is 7.12 in assay [1] (setting [4]); 9.52 in assay [1] (setting [3]); 6.68 in assay [2] (Homo sapiens, MCF7, 72 h).

`Nc1nc2cc(OC[C@H]3S[C@@H](n4ccc5c(N)ncnc54)[C@H](O)[C@@H]3O)ccc2cc1Cl` [Example 2, 7-[5-O-(2-amino-3-chloroquinolin-7-yl)-4-thio-beta-D-ribofuranosyl]-7H-pyrrolo[2,3-d]pyrimidin-4-amine]: the pEC50 was 6.70 in assay [1] (setting [4]); 8.66 in assay [1] (setting [3]); 6.95 in assay [2] (Homo sapiens, MCF7, 72 h).

Take `Nc1nc2cc(OC[C@H]3S[C@@H](n4ccc5c(N)ncnc54)[C@H](O)[C@@H]3O)ccc2cc1F` [Example 3, 7-[5-O-(2-amino-3-fluoroquinolin-7-yl)-4-thio-beta-D-ribofuranosyl]-7H-pyrrolo[2,3-d]pyrimidin-4-amine]: the pEC50 was 6.04 in assay [1] (setting [4]); 8.22 in assay [1] (setting [3]); 6.22 in assay [2] (Homo sapiens, MCF7, 72 h).

On to `Nc1ncnc2c1ccn2[C@@H]1S[C@H](COc2ccc3ccc(NCC4CC4)nc3c2)[C@@H](O)[C@H]1O` [Example 4, 7-(5-O-{2-[(cyclopropylmethyl)amino]quinolin-7-yl}-4-thio-beta-D-ribofuranosyl)-7H-pyrrolo[2,3-d]pyrimidin-4-amine], for which the pEC50 is 6.24 in assay [1] (setting [4]); 8.92 in assay [1] (setting [3]); 7.30 in assay [2] (Homo sapiens, MCF7, 72 h).

As for `Nc1nc2cc(OC[C@H]3S[C@@H](n4ccc5c(Cl)ncnc54)[C@H](O)[C@@H]3O)ccc2cc1Cl` [Example 5], the pEC50 in assay [1] (setting [3]) is 7.58; in assay [2] (Homo sapiens, MCF7, 72 h), at most 5.00.

Turning to `C[C@]1(COc2ccc3cc(Br)c(N)nc3c2)S[C@@H](n2ccc3c(Cl)ncnc32)[C@H](O)[C@@H]1O` [Example 6, (2R,3S,4R,5R)-2-(((2-amino-3-bromoquinolin-7-yl)oxy)methyl)-5-(4-chloro-7H-pyrrolo[2,3-d]pyrimidin-7-yl)-2-methyltetrahydrothiophene-3,4-diol], the pEC50 was 8.01 in assay [1] (setting [3]) and 5.95 in assay [2] (Homo sapiens, MCF7, 72 h).

For `CC1(COc2ccc3cc(Br)c(N)nc3c2)SC(n2ccc3c(N)ncnc32)C(O)C1O` [Example 7, (2R,3R,4R,5R)-2-(((2-amino-3-bromoquinolin-7-yl)oxy)methyl-5-(4-amino-7H-pyrrolo[2,3-d]pyrimidin-7-yl)-2-methyltetrahydrothiophene-3,4-diol], the pEC50 was 6.27 in assay [1] (setting [4]); 8.60 in assay [1] (setting [3]); 6.92 in assay [2] (Homo sapiens, MCF7, 72 h).

Turning to `COc1ncnc2c1ccn2[C@@H]1S[C@H](COc2ccc3ccc(NCC4CC4)nc3c2)[C@@H](O)[C@H]1O` [Example 8, (2R,3S,4R,5R)-2-(((2-((cyclopropylmethyl)amino)quinolin-7-yl)oxy)methyl)-5-(4-methoxy-7H-pyrrolo[2,3-d]pyrimidin-7-yl)tetrahydrothiophene-3,4-diol], the pEC50 in assay [1] (setting [3]) was 4.42; in assay [2] (Homo sapiens, MCF7, 72 h), 5.43.

Regarding `Cc1ncnc2c1ccn2[C@@H]1S[C@H](COc2ccc3ccc(NCC4CC4)nc3c2)[C@@H](O)[C@H]1O` [Example 9, (2R,3S,4R,5R)-2-(((2-((cyclopropylmethyl)amino)quinolin-7-yl)oxy)methyl)-5-(4-methyl-7H-pyrrolo[2,3-d]pyrimidin-7-yl)tetrahydrothiophene-3,4-diol], the pEC50 in assay [1] (setting [4]) is 5.59; in assay [1] (setting [3]), 7.85; in assay [2] (Homo sapiens, MCF7, 72 h), 7.23.

For the molecule `COc1ncnc2c1ccn2[C@@H]1S[C@H](COc2ccc3ccc(N)nc3c2)[C@@H](O)[C@H]1O` [Example 10, (2R,3S,4R,5R)-2-(((2-aminoquinolin-7-yl)oxy)methyl)-5-(4-methoxy-7H-pyrrolo[2,3-d]pyrimidin-7yl)tetrahydrothiophene-3,4-diol], the pEC50 was 4.79 in assay [1] (setting [4]); 7.71 in assay [1] (setting [3]); 5.22 in assay [2] (Homo sapiens, MCF7, 72 h).

As to `Nc1ccc2ccc(OC[C@H]3S[C@@H](n4ccc5c(N)ncnc54)[C@H](O)[C@@H]3O)cc2n1` [Example 11, (2R,3R,4S,5R)-2-(4-amino-7H-pyrrolo[2,3-d]pyrimidin-7-yl)-5-(((2-aminoquinolin-7-yl)oxy)methyl)tetrahydrothiophene-3,4-diol], the pEC50 in assay [1] (setting [4]) is 7.26; in assay [1] (setting [3]) it was 9.15; in assay [2] (Homo sapiens, MCF7, 72 h), 7.06.
